Data taken from ChEMBL document CHEMBL1201862, “PubChem BioAssay data set” (2004).
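Tested at 5 concentrations; 48 h exposure; 96-well plates; endpoints linearly interpolated, else capped at highest concentration. GI50 marks 50% less growth.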 Activity calls are given as the source filed them. Cut-off read from the data, not from the text of the source: active = GI50 up to about 1.1 µM and inactive = higher.

Key:
Assay in all cases: NCI-60 cell line screen, 48 h
[1] = system: SW-620
[2] = system: SK-MEL-2
[3] = system: 786-0
[4] = system: HCT-116
[5] = system: SNB-75
[6] = system: EKVX
[7] = system: UACC-257
[8] = system: SK-OV-3
[9] = system: SF-295
[10] = system: SK-MEL-28
[11] = system: HOP-62
[12] = system: HCC 2998
[13] = system: SR
[14] = system: SF-539
[15] = system: A549
[16] = system: UO-31
[17] = system: TK-10
[18] = system: HOP-92
[19] = system: OVCAR-5

Measured: GI50

CN(C)CN(C)c1nc(N(C)C)nc(N(C)CN(C)C)n1
inactive: [1] 23.9 µM | [2] 20.9 µM | [3] 34.4 µM | [4] 32 µM | [5] 60.3 µM | [6] > 100 µM | [7] 34.7 µM | [8] > 100 µM | [9] > 100 µM | [10] 25.8 µM | [11] > 100 µM | [12] > 100 µM | [13] 24.4 µM | [14] 50.4 µM | [15] > 100 µM | [16] > 100 µM | [17] > 100 µM | [18] 63 µM

Cc1cc([N+](=O)[O-])ccc1/N=N/C(=O)NNc1ccc([N+](=O)[O-])cc1C
inactive: [19] 17.1 µM | [1] 16.7 µM | [2] 21 µM | [3] 16.9 µM | [4] 11.2 µM | [5] 17 µM | [7] 20 µM | [10] 16.4 µM | [11] 13.7 µM | [12] 16 µM | [13] 20.7 µM | [15] 15.8 µM | [16] 11.8 µM | [17] 16.7 µM

Nc1nc(Cl)cc(NCCCCO)n1
inactive: [19] > 100 µM | [1] > 100 µM | [2] > 100 µM | [4] > 100 µM | [5] 65.3 µM | [6] > 100 µM | [7] > 100 µM | [8] > 100 µM | [9] > 100 µM | [10] > 100 µM | [11] > 10 µM | [12] > 100 µM | [13] > 100 µM | [14] > 100 µM | [15] > 100 µM | [16] > 100 µM | [17] > 100 µM | [18] > 100 µM

C[C@]12CCC3[C@@H](C[C@H]4OC(=O)[C@@]35CCC(=O)C=C45)C1CCC2=O (stereo not given in full)
inactive: [19] > 100 µM | [1] > 100 µM | [2] > 100 µM | [3] > 100 µM | [6] > 100 µM | [7] > 100 µM | [8] > 100 µM | [9] > 100 µM | [10] > 100 µM | [12] > 100 µM | [13] > 100 µM | [14] > 100 µM | [15] > 100 µM | [16] > 100 µM | [17] > 100 µM | [18] > 100 µM

Cc1ccc(NC(=O)C2C(=O)N(c3ccc(C)c(C)c3)C(=O)/C2=N\NC(N)=S)cc1C (stereo not given)
inactive: [1] > 100 µM | [2] > 100 µM | [3] > 100 µM | [4] > 100 µM | [5] > 100 µM | [6] > 100 µM | [7] > 100 µM | [8] 45 µM | [9] > 100 µM | [10] > 100 µM | [13] > 100 µM | [14] > 100 µM | [15] > 100 µM | [16] 56.8 µM | [17] > 100 µM | [18] > 100 µM

O=P(Nc1ccc(Cl)cc1)(Oc1ccccc1)N(CCCl)CCCl (stereo not given)
inactive: [19] > 100 µM | [1] > 100 µM | [2] 35.5 µM | [4] > 100 µM | [5] 33.7 µM | [6] > 100 µM | [7] > 100 µM | [8] > 100 µM | [9] > 100 µM | [10] > 100 µM | [11] > 100 µM | [12] > 100 µM | [13] > 100 µM | [14] > 100 µM | [15] > 100 µM | [16] > 100 µM | [17] > 100 µM | [18] > 100 µM
